The target of one experiment is T1, Cav2.2 (Homo sapiens, UniProt Q00975).
T1 construct: expressed in transfected cells; host or cells: HEK-293T/17 (transient, FuGENE 6)
The experiment can be described thus: HEK assay (whole-cell patch clamp, transiently transfected HEK-293T/17 cells, pulses P1 and P5). It is filed as cell-based. The settings on record: holding potential −100 mV. How it is done: HEK-293T/17 cells were transiently transfected in a similar manner as described in FuGENE 6 Package Insert Version 7, April 2002, Roche Applied Science, Indianapolis, Ind. The cells were plated at 2.5×10^5 cells in 2 mL in a 6-well plate, incubated for one night, and achieved a ˜30-40% confluence. In a small sterile tube, sufficient serum-free medium was added as diluent for FuGENE Transfection Reagent (Roche Applied Science, Indianapolis, Ind.) to a total volume of 100 μL. To this medium was added 3 μL of FuGENE 6 Reagent. The mixture was tapped gently to mix. To the prediluted FuGENE 6 Reagent was added 2 μg of DNA solution (0.8-2.0 μg/μL). The DNA/Fugene 6 mixture was gently pipeted to mix the contents and incubated for about 15 minutes at room temperature. The complex mixture was then added to the HEK-293T/17 cells, distributed around the well, and swirled to ensure even dispersal. The cells were returned to the incubator for 24 hours. The transfected cells were then replated at density 2.5×10^5 in a 35 mm dish with 5 glass coverslips and grew in low serum (1%) media for 24 hours. Coverslips with isolated cells were then transferred into a chamber, and calcium channel (e.g., L-type, N-type, etc.) current or other currents for counter screening were recorded from the transiently transfected HEK-293T/17 cells.
The whole-cell voltage clamp configuration of the patch clamp technique was employed to evaluate voltage-dependent calcium currents essentially as described by Thompson and Wong (1991), J. Physiol., 439: 671-689, the entire disclosure of which is herein incorporated by reference. To record calcium channel (e.g., L-type, N-type, etc.) currents for evaluation of inhibitory potency of compounds (steady-state concentration-response analysis), five pulses of 20-30 ms voltage steps to about +10 mV (the peak of the current voltage relationship) were delivered at five Hz every 30 second from a holding potential at −100 mV. In order to obtain an estimate of the degree of use-dependent block of the test compounds, IC50 values were determined at the first and fifth pulse of the train (P1 and P5, respectively, in Table 2). Compound evaluations were carried out essentially as described by Sah D. W. and Bean B. P. (1994), Mol. Pharmacol., 45:84-92, the entire disclosure of which is herein incorporated by reference.

Experiment [1] has as its target T2, human Cav2.2 (composed of the subunits α1, β3 and α2δ) (Homo sapiens, UniProt Q00975).
T2 construct: expressed in transfected cells
The experiment can be described thus: FLIPR assay (TSA201 cells stably transfected with human Cav2.2 and human Kir2.3, FLUO-4 Ca2+ signal, KCl depolarization). The following applies: 70 mM KCl depolarization, average value. It is filed as cell-based. How it is done:
TSA201 cells stably transfected with human Cav2.2 (composed of the subunits α1, β3 and α2δ) and human Kir2.3 to enhance the FLIPR Ca^2+ signal were used. These cells were plated on 384-well collagen-coated plates (BD Bioscience, Franklin Lakes, N.J.) at a density of 2×10^4 cells/well one day prior to the FLIPR assay. […] Culture media is removed and replaced with 25 μl of the FLUO-4 dye solution and incubated for one hour at room temperature. The cell plate is then placed on the FLIPR where the dye is aspirated off and replaced with 25 μl of HBSS (Invitrogen, Carlsbad, Calif.). The HBSS is then aspirated and replaced with […] of compound which is diluted in HBSS with 1% DMSO. Compounds are incubated on the cells for 15 minutes. The cells are then depolarized with 25 μl of 140 mM KCl solution (also containing 2 mM CaCl2 and 10 mM HEPES). The final concentration of KCl on the cells is 70 mM.

[2] abbreviates: fifth pulse (P5) of 5 Hz train, read-out: HEK Cav2.2 P5 IC50.
The mark [3] stands for this setting: first pulse (P1) of 5 Hz train, read-out: HEK Cav2.2 P1 IC50.

Each structure is given as a SMILES string. Where two headings read alike, the source gives them in different places.

T1 sequence (Q00975 whole entry): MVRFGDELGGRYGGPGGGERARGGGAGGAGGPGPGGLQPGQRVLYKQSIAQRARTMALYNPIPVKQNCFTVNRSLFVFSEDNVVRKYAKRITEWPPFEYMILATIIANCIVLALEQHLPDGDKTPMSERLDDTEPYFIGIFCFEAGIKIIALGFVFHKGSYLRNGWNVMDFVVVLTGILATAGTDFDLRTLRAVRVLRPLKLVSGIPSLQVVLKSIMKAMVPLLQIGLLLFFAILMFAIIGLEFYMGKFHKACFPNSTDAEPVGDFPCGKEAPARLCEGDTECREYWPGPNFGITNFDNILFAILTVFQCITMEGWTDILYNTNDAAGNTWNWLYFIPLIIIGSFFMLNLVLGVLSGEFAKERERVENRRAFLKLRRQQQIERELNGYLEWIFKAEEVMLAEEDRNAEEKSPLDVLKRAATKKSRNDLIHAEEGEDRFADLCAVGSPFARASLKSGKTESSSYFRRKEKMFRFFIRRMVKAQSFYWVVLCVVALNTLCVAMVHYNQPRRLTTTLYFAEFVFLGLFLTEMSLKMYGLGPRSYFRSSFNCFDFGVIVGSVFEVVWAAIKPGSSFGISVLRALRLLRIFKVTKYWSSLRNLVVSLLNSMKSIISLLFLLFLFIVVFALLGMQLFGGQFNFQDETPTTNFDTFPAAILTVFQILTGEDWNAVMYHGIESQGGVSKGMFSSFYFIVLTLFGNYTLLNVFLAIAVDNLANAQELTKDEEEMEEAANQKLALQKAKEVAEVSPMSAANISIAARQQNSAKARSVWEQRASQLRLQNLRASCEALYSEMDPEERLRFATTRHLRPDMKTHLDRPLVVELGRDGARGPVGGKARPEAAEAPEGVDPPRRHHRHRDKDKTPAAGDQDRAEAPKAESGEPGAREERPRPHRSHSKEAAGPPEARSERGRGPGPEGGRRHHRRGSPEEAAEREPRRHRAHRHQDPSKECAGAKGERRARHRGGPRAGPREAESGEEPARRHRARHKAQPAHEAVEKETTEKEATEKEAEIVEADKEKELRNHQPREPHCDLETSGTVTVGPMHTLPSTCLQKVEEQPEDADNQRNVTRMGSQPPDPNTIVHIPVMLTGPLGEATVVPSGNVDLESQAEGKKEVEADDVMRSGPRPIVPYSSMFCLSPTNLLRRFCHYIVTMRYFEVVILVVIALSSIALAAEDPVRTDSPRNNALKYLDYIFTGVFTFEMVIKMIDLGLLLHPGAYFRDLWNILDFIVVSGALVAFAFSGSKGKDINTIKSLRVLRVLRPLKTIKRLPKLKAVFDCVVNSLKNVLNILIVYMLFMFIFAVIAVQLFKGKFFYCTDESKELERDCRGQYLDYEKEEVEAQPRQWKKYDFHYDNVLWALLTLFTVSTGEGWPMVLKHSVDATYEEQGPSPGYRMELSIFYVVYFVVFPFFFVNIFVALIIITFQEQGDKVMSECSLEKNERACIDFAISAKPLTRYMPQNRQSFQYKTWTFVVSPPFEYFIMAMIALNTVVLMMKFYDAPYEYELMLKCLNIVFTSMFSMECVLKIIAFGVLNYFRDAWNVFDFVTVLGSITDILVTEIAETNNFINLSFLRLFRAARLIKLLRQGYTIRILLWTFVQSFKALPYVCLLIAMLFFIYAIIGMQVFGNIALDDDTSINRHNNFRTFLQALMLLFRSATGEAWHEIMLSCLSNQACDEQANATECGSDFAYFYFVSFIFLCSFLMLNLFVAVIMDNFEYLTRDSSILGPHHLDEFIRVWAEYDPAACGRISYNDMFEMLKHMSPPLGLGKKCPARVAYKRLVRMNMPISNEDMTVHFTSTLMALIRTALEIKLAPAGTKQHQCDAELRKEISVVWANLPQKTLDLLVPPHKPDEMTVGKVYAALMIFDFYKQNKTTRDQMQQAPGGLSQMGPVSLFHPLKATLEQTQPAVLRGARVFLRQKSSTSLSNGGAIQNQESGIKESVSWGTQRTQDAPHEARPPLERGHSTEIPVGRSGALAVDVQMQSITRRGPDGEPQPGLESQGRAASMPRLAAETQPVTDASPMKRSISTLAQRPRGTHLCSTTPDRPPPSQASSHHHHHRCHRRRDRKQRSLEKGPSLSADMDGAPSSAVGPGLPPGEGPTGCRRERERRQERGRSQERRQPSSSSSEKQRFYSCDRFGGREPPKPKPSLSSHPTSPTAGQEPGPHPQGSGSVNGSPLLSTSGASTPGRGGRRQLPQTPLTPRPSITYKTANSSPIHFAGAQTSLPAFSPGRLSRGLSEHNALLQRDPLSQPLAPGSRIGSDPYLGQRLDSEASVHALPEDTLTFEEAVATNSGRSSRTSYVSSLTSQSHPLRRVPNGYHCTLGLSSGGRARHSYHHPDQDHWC
T1 sequence (P54284 whole entry partner): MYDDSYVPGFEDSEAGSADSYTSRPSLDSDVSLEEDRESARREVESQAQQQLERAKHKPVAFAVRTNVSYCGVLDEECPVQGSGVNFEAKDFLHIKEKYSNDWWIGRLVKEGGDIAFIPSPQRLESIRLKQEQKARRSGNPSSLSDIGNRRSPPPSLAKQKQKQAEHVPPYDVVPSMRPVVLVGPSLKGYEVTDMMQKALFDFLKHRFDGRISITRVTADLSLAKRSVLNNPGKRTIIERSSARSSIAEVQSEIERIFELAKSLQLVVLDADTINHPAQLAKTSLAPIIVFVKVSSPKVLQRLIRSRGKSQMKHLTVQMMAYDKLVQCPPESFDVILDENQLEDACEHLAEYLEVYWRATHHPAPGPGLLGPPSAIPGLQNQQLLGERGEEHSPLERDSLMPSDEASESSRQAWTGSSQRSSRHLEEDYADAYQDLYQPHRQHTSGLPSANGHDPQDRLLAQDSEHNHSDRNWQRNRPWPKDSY
T1 sequence (P54289 25-946 partner limits assumed): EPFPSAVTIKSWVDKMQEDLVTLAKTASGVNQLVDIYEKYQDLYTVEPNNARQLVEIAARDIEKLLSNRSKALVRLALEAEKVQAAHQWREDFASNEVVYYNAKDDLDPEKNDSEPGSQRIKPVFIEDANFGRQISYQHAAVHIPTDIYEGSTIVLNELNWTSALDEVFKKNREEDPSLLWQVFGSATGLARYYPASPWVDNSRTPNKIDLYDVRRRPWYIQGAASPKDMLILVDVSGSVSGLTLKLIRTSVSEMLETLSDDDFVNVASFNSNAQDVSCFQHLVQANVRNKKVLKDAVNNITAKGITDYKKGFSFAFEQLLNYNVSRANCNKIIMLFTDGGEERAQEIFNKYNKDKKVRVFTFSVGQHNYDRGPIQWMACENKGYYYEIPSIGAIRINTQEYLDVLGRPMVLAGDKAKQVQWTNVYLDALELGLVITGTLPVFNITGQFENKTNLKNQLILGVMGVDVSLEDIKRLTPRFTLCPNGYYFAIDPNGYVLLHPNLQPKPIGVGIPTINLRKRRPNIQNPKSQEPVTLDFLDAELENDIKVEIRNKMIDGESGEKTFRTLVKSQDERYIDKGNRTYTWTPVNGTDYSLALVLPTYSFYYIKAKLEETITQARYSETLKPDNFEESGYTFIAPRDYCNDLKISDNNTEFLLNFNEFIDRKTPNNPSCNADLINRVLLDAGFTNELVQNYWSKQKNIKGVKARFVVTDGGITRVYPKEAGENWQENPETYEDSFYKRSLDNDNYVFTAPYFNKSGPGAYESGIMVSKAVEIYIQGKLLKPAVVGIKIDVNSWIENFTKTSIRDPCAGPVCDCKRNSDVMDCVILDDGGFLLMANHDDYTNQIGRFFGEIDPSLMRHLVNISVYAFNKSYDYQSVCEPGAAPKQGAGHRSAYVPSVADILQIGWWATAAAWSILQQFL
T1 sequence (P54289 947-1103 partner limits assumed): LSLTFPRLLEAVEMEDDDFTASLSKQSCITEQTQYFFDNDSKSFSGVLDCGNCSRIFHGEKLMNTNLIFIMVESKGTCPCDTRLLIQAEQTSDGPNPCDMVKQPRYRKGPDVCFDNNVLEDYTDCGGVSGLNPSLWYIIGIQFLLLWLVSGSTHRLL
T2 sequence (Q00975 whole entry): as the sequence (Q00975 whole entry) above
T2 sequence (P54284 whole entry partner): as the sequence (P54284 whole entry partner) above
T2 sequence (P54289 25-946 partner limits assumed): as the sequence (P54289 25-946 partner limits assumed) above
T2 sequence (P54289 947-1103 partner limits assumed): as the sequence (P54289 947-1103 partner limits assumed) above

For the molecule `CCN(CC)c1ccc(CN(C(=O)CCC(C)C)c2ccc(N(C)C)cc2)cc1` [Compound 91, 4-Methyl-pentanoic acid (4-Diethylaminobenzyl)-(4-dimethylamino-phenyl)-amide], the values for the IC50 at Cav2.2 (setting [2]) and on Cav2.2 (setting [3]) were 600 nM and 1000 nM, respectively. For `CCN(c1cccc(CN(C(=O)C(C)(C)C)c2ccc(F)cc2)n1)C1CC1` [Compound 92, N-[6-(Cyclopropyl(ethyl)amino)-pyridin-2-ylmethyl]-N-(4-fluorophenyl)-2,2-dimethyl-propionamide], in that order: 800 nM and 1800 nM.

For the molecule `CCN(CC)c1ccc(CN(C(=O)/C=C/C(C)C)c2ccc(N(C)C)cc2)cc1` [Compound 94, 4-Methyl-pent-2-enoic acid (4-Diethylaminobenzyl)-(4-dimethylamino-phenyl)-amide], the values for the IC50 on Cav2.2 (setting [2]) and at Cav2.2 (setting [3]) were 700 nM and 1800 nM, respectively. As to `CCN(CC)c1nc(CN(C(=O)CCC(C)C)c2ccc(N(C)C)cc2)cs1` [Compound 95, 4-Methyl-pentanoic acid (2-diethylamino-thiazol-4-ylmethyl)-(4-dimethylamino-phenyl)-amide], the results for the IC50 at Cav2.2 (setting [2]) and at Cav2.2 (setting [3]) were 2300 nM and 7900 nM, respectively. For `CCN(CC)c1nc(CN(C(=O)C(C)(C)CC)c2ccc(N(C)C)cc2)cs1` [Compound 96, N-(2-Diethylamino-thiazol-4-ylmethyl)-N-(4-dimethyalmino-phenyl)-2,2-dimethyl-butyramide], in that order: 1100 nM and 4500 nM. For `CCN(CC)c1ccc(N(Cc2cccc(N(CC)C3CC3)c2)C(=O)C(C)(C)C)cc1` [Compound 97, N-[3-(Cyclopropyl(ethyl)amino)-benzyl]-N-(4-diethylamino-phenyl)-2,2-dimethyl-propionamide], in that order: 400 nM and 1100 nM.

For the molecule `CCN(CC)c1ccc(CN(C(=O)CCC(C)C)c2ccc(N)cc2)cc1` [Compound 98, 4-Methyl-pentanoic acid (4-aminophenyl)-(4-Diethylaminobenzyl)-amide], the half-maximal inhibitory concentration (IC50) on Cav2.2 (setting [2]) stood at 1900 nM; on Cav2.2 (setting [3]) it was 5200 nM. `CCN(CC)c1ccc(CN(C(=O)CCC(C)C)c2ccc(NC)cc2)cc1` [Compound 99, 4-Methyl-pentanoic acid (4-Diethylaminobenzyl)-(4-methylamino-phenyl)-amide]: the half-maximal inhibitory concentration (IC50) on Cav2.2 (setting [2]) is below 100 nM; on Cav2.2 (setting [3]), 4300 nM. On to `CCN(c1ccc(CN(C(=O)C(C)(C)C)c2ccc(N(C)C)cc2)cn1)C1CC1` [Compound 100, N-[6-(Cycloproyl(ethyl)amino)-pyridin-3-ylmethyl]-N-(4-dimethylamino-phenyl)-2,2-dimethyl-propionamide], for which the results for the 50% inhibitory concentration (IC50) on Cav2.2 (setting [2]) and on Cav2.2 (setting [3]) were 4300 nM and 8000 nM, respectively. As to `CC(C)(C)OC(=O)N(Cc1csc(-c2ccncc2)n1)c1ccc(F)cc1` [Compound 101, (4-Fluorophenyl)-(2-pyridin-4-yl-thiazol-4-ylmethyl)-carabamic acid tert-butyl ester], the IC50 on Cav2.2 (setting [2]) was found to be 8400 nM. In the case of `CN1CCN(c2ncc(CN(C(=O)OC(C)(C)C)c3ccc(F)cc3)s2)CC1` [Compound 102, (4-Fluorophenyl)-[2-(4-methyl-piperazin-1-yl)-thiazol-5-ylmethyl]-carbamic acid tert-butyl ester], the IC50 at Cav2.2 (setting [2]) stood at 9600 nM.

As to `O=C(C1CC1)N(Cc1csc(N2CCCCC2)n1)c1ccc(F)cc1` [Compound 107, Cyclopropanecarboxylic acid (4-fluorophenyl)-(2-piperidin-1-yl-thiazol-4-ylmethyl)-amide], the figures for the concentration for half-maximal inhibition (IC50) on Cav2.2 (setting [2]) and on Cav2.2 (setting [3]) were 2500 nM and 11100 nM, respectively. For `O=C(C1CCCCC1)N(Cc1csc(N2CCOCC2)n1)c1ccc(F)cc1` [Compound 108, Cyclohexanecarboxylic acid (4-fluorophenyl)-(2-morpholin-4-yl-thiazol-4-ylmethyl)-amide], in that order: 3900 nM and 14100 nM. For `O=C(C1CCCO1)N(Cc1ccc(N2CCN(c3ccccn3)CC2)nc1)c1ccc(F)cc1` (stereo not shown) [Compound 109, Tetrahydro-furan-2-carboxylic acid (4-fluorophenyl)-[6-(4-pyridin-2-yl-piperazin-1-yl)-pyridin-3-ylmethyl]-amide] the same measures were 2600 nM and 13900 nM.

On to `CN(c1ccc(F)cc1)c1nc(CN(C(=O)C2CCCN2C)c2ccc(F)cc2)cs1` (stereo not shown) [Compound 114, 1-Methyl-pyrrolidine-2-carboxylic acid (4-fluroophenyl)-{2-[(4-fluorophenyl)-methyl-amino]-thiazol-4-ylmethyl]-amide], for which the IC50 came out at 2100 nM at Cav2.2 (setting [2]) and 4800 nM on Cav2.2 (setting [3]). For `CCN(c1ccc(CN(C(=O)C2CCCN2Cc2ccccc2)c2ccc(F)cc2)cn1)C1CC1` (stereo not shown) [Compound 115, 1-Benzyl-pyrrolidine-2-carboxylic acid [6-(Cyclopropyl(ethyl)amino)-pyridin-3-ylmethyl]-(4-fluorophenyl)-amide], in that order: 600 nM and 2700 nM. For `CCN(CC)c1ccc(CN(C(=O)[C@@H]2CCCN2)c2ccc(F)cc2)cn1` [Compound 116, N-{[6-(diethylamino)pyridin-3-yl]methyl}-N-(4-fluroophenyl)-L-prolinamide], in experiment [1], the IC50 turned out to be 34.8 µM. Same read-out and setting: under `CCN(c1ccc(CN(C(=O)[C@@H]2CCCN2)c2ccc(OC)cc2)cc1)C1CC1` [Compound 117, N-{4-[cyclopropyl(ethyl)amino]benzyl}-N-(4-methoxyphenyl)-L-prolinamide] stands 9.7 µM; under `CCN(c1cccc(CN(C(=O)[C@@H]2CCCN2)c2ccc(F)cc2)c1)C1CC1` [Compound 118, N-{3-[cyclopropyl(ethyl)amino]benzyl}-N-(4-fluorophenyl)-L-prolinamide], 3.4 µM; under `CCN(CC)c1cccc(CN(C(=O)[C@@H]2CCCN2)c2ccc(Cl)cc2)n1` [Compound 119, N-(4-chlorophenyl)-N-{[6-(diethylamino)pyridin-2-yl]methyl}-L-prolinamide], 12.2 µM. Turning to `Cc1cc(F)ccc1N(Cc1cnc(N2CCCCC2)nc1)C(=O)[C@@H]1CCCN1` [Compound 120, N-(4-fluoro-2-methylphenyl)-N-[(2-piperidin-1-ylpyrimidin-5-yl)methyl]-L-prolinamide], the IC50 in experiment [1] came out at 13.7 µM. On the same count and under the same terms, under `Cc1ccc(N(Cc2cnc(N3CCCC3)s2)C(=O)[C@@H]2CCCN2)cc1` [Compound 121, N-(4-methylphenyl)-N-[(2-pyrrolidin-1-yl-1,3-thiazol-5-yl)methyl]-L-prolinamide] stands 20.9 µM; under `CCN(c1nc(CN(C(=O)[C@@H]2CCCN2)c2ccc(F)cc2)cs1)C1CC1` [Compound 122, N-({2-[cyclopropyl(ethyl)amino]-1,3-thiazol-4-yl}methyl)-N-(4-fluorophenyl)-L-prolinamide], 13.8 µM. Same read-out and setting: under `CCN(c1nc(CN(C(=O)[C@H]2CCCN2)c2ccc(F)cc2)cs1)C1CC1` [Compound 123, N-({2-[cyclopropyl(ethyl)amino]-1,3-thiazol-4-yl}methyl)-N-(4-fluorophenyl)-D-prolinamide] stands 10.2 µM; under `CCN(c1nc(CN(C(=O)[C@@H]2CCC(=O)N2)c2ccc(F)cc2)cs1)C1CC1` [Compound 124, N-({2-[cyclopropyl(ethyl)amino]-1,3-thiazol-4-yl}methyl)-N-(4-fluorophenyl)-5-oxo-L-prolinamide], 19.7 µM; under `CN1CCN(c2ccc(CN(C(=O)C3CCCCC3)c3ccc(F)cc3)cn2)CC1` [Compound 125, N-(4-fluorophenyl)-N-{[6-(4-methylpiperazin-1-yl)pyridin-3-yl]methyl}cyclohexanecarboxamide], 9.5 µM.

(Values after patent US20100267697A1, “ION CHANNEL MODULATORS” (Wyeth, priority 2006, published 2010).)
